Assays:
[1] = tested on: pS6K1 (p-p70 S6 Kinase (Thr389)) in MCF-7 cells; test: AlphaLISA Ultra pS6K1 Assay; format: cell-based; settings: Homo sapiens, 1.5 h; MCF7 cells, 90 min
Experimental: AlphaLISA Ultra pS6K1 Assay
1. Seed MCF-7 cells in Corning 3701 plate and incubate for 20˜24 hour. 12,000˜16,000 cells will be seeded in 36 μL medium per well.
2. Change the culture medium with fresh medium and incubate for another 2 hours.
3. Add 12 μL (4×) compounds into the cell plate by HAMILTON. Final DMSO concentration is 0.5%. Incubate for 90 minutes.
4. Aspirate […] by HAMILTON, 10 μL rest per well.
5. Add 10 μL 2× lysis buffer using HAMILTON; total volume in wells is 20 μL. Allow cells to shake for 30 min. Cover plate by plastic foil and store plate at −80° C. up to analysis.
6. Thaw cell lysate at RT and transfer 10 μL lysate to assay plate (Optiplate-384).
7. Add 5 μL acceptor beads into assay plate and incubation for 2 hours
8. Add 5 μL donor beads and incubation for 2 hours
9. Count the plate by EnSpire Multimode Plate Reader

mTORC1 over mTORC2 = test: mTORC1 selectivity over mTORC2 at 24 hrs (Western blot based pS6K1 and pAKT assay); format: cell-based; settings: 24 hrs
Experimental: Western Blot Based pS6K1 and pAKT Assay at 24 and 48 Hour Timepoints
1. Seed six well plate with 500,000 PC3 cells per well and incubate for 20˜24 hour.
2. Add compounds into the cell plate. Incubate for 24 to 48 hours.
4. Plate is placed on ice and the media is removed via aspiration. The wells are washed with 1 mL of 1× PBS and then fully aspirated.
5. 110 μL of 1% Triton Lysis Buffer is added and each well is scraped vigorously.
6. Cell homogenates are transferred to 1.5 mL eppendorf tubes on ice and spun down at 4° C. for 10 minutes at 10,000 rpm.
9. The membranes were washed 3× with TBS-T with a 5 minute incubation between each wash then incubated with secondary antibody (LiCor IRDye 800 Donkey Anti Rabbit) for at least 30 minutes.
10. The membranes were washed 3× with TBS-T with a 5 minute incubation between each wash.
11. The gels were then incubated for 5 minutes with PBS at room temperature then imaged using a Li-Cor.
“N/A” stands for “not assayed.”

| SMILES | IC50 [1] [nM] | mTORC1 selective @ 24 hrs (mTORC1 over mTORC2) |
| --- | --- | --- |
| CO[C@@H]1C[C@H](C[C@@H](C)[C@@H]2CC(=O)[C@H](C)/C=C(\C)[C@@H](O)[C@@H](OC)C(=O)[C@H](C)C[C@H](C)/C=C/C=C/C=C(\C)[C@H](OCC3COCCOCCOCCOCCO3)C[C@@H]3CC[C@@H](C)[C@@](O)(O3)C(=O)C(=O)N3CCCC[C@H]3C(=O)O2)CC[C@H]1O (stereo partly drawn) [I-107, (30E,32E,34E,35E,38R,39S,40R,41R,43S,45S,47R,48S,50R,51R,60R)-50, 60-dihydroxy-48-[(1R)-2-[(1S,3R,4R)-4-hydroxy-3-methoxy-cyclohexyl]-1-methyl-ethyl]-51-methoxy-38, 39,40,41,52,53-hexamethyl-47-(1,4,7,10,13-pentaoxacyclopentadec-2-ylmethoxy)-75, 76-dioxa-61-azatricyclohexatriaconta-30,32,34(52),35(53)-tetraene-54,55,56,57,58-pentone] | ≥ 100 | YES |
| CO[C@@H]1C[C@H](C[C@@H](C)[C@@H]2CC(=O)[C@H](C)/C=C(\C)[C@@H](O)[C@@H](OC)C(=O)[C@H](C)C[C@H](C)/C=C/C=C/C=C(\C)[C@@H](OCC3COCCOCCOCCOCCO3)C[C@@H]3CC[C@@H](C)[C@@](O)(O3)C(=O)C(=O)N3CCCC[C@H]3C(=O)O2)CC[C@H]1O (stereo partly drawn) [I-108, (30E, 32E,34E,35E,38R,39S,40R,41R,43S,45S,47S,48S,50R,51R,60R)-50, 60-dihydroxy-48-[(1R)-2-[(1S,3R,4R)-4-hydroxy-3-methoxy-cyclohexyl]-1-methyl-ethyl]-51-methoxy-38, 39,40,41,52,53-hexamethyl-47-(1,4,7,10,13-pentaoxacyclopentadec-2-ylmethoxy)-75, 76-dioxa-61-azatricyclohexatriaconta-30, 32,34(52),35(53)-tetraene-54,55,56,57,58-pentone] | 0.1 to 1 | YES |
| CO[C@@H]1C[C@H](C[C@@H](C)[C@@H]2CC(=O)[C@H](C)/C=C(\C)[C@@H](O)[C@@H](OC)C(=O)[C@H](C)C[C@H](C)/C=C/C=C/C=C(\C)[C@H](OCCOCCOCCO)C[C@@H]3CC[C@@H](C)[C@@](O)(O3)C(=O)C(=O)N3CCCC[C@H]3C(=O)O2)CC[C@H]1OCCO [I-109, (21E,23E,25E,26E,36R,37S,38R,39R,41S,43S,45R,46S,47R,48R,57R)-47, 57-dihydroxy-45-[2-[2-(2-hydroxyethoxy)ethoxy]ethoxy]-46-[(1R)-2-[(1S,3R, 4R)-4-(2-hydroxyethoxy)-3-methoxy-cyclohexyl]-1-methyl-ethyl]-48-methoxy-36,37,38,39,49,50-hexamethyl-68, 69-dioxa-58-azatricyclohexatriaconta-21,23,25(49),26(50)-tetraene-51,52,53,54,55-pentone] | 1 to 10 | YES |
| CO[C@@H]1C[C@H](C[C@@H](C)[C@@H]2CC(=O)[C@H](C)/C=C(\C)[C@@H](O)[C@@H](OC)C(=O)[C@H](C)C[C@H](C)/C=C/C=C/C=C(\C)[C@H](OCC3COCCOCCOCCO3)C[C@@H]3CC[C@@H](C)[C@@](O)(O3)C(=O)C(=O)N3CCCC[C@H]3C(=O)O2)CC[C@H]1O (stereo partly drawn) [I-111, (28E,30E,32E,33E,36R,37S,38R,39R,41S,43S,45R,46S,48R,49R,58R)-48, 58-dihydroxy-46-[(1R)-2-[(1S,3R,4R)-4-hydroxy-3-methoxy-cyclohexyl]-1-methyl-ethyl]-49-methoxy-36, 37,38,39,50,51-hexamethyl-45-(1,4,7,10-tetraoxacyclododec-2-ylmethoxy)-72,73-dioxa-59-azatricyclohexatriaconta-28, 30,32(50),33(51)-tetraene-52,53,54,55,56-pentone] | 1 to 10 | YES |

From patent US11944605B2, “Rapamycin analogs and uses thereof” (Janssen Pharmaceutica NV, priority 2018, dated 2024)
